# From patent publication US20150099667A1, “METHODS FOR THE ACTIVATION OF SILENT GENES IN A MICROORGANISM” (priority 2012, published 2015)
# Read-outs that look alike come from different tables or passages of the source.
# How the values were obtained:
# Assay in all cases: Biological screening of extracts of induced Actinobacteria, BacTiter-Glo assay
# Assay type in all cases: cell-based
# [1] = tested on: Pseudomonas aeruginosa ATCC 27853
# [2] = tested on: Staphylococcus aureus ATCC 33592
# [3] = tested on: Escherichia coli ATCC 35218; settings: FIG. 4
# [4] = tested on: Candida albicans ATCC 753; settings: FIG. 10
# [5] = chemical inducer 3.3 μg/ml in medium 5294
structure (smiles),measurement,setting,value
[Cl-].[Cl-].[Co+2] [CoCl2],"extracts showing >50% activity against Pseudomonas aeruginosa ATCC 27853, share by culture condition",[1],3.8%
same,"extracts that showed >50% activity against Staphylococcus aureus ATCC 33592, share by culture condition",[2],3.6%
C[S+](C)[O-] [DMSO],"extracts that showed >50% activity against Escherichia coli ATCC 35218, share by culture condition",[3]; chemical inducer 50 μl/ml in medium 5294,3.6%
same,"extracts that showed >50% activity against Candida albicans ATCC 753, share by culture condition",[4]; chemical inducer 10 μl/ml in medium 5294,3.5%
O=[Se]([O-])O.[Na+] [NaHSeO3],"extracts that showed >50% activity against Escherichia coli ATCC 35218, share by culture condition",[3]; [5],3.3%
[Cl][Ni][Cl] [NiCl2],"extracts that showed >50% activity against Candida albicans ATCC 753, share by culture condition",[4]; [5],3.7%
[Cl-].[Cl-].[Sr+2] [SrCl2],"extracts showing >50% activity against Pseudomonas aeruginosa ATCC 27853, share by culture condition","[1]; chemical inducer 3.3 μg/ml in medium 5294, FIG. 6",3.8%
same,"extracts that showed >50% activity against Staphylococcus aureus ATCC 33592, share by culture condition","[2]; chemical inducer 3.3 μg/ml in medium 5294, FIG. 8",3.5%
same,"extracts that showed >50% activity against Candida albicans ATCC 753, share by culture condition",[4]; chemical inducer 1.6 μg/ml in medium 5294,3.5%
